From ChEMBL document CHEMBL4024706 (Eur J Med Chem, 2017)

Legend:
U-937 = test: Growth inhibition of human U937 cells; assay type: functional; conditions: Homo sapiens, U-937
[1] = molecular target: Tyrosine-protein kinase BTK (Homo sapiens, UniProt Q06187); test: Inhibition of BTK auto-phosphorylation at Y223 in human Pfeiffer cells measured after 4 hrs by chemiluminescent assay
[2] = Elimination half-life in Sprague-Dawley rat at 10 mg/kg, po by LC-MS/MS method; assay type: ADME, organism-based; conditions: in vivo, read-out: beta t1/2 (converted)
[3] = system: Tyrosine-protein kinase ABL1 (Homo sapiens), P00519 [M351T]; test: Inhibition of human phosphorylated ABL1 M351T mutant (S229 to K512 residues) expressed in mammalian expression system assessed as residual activity at 1 uM by Kinomescan method relative to control
[4] = molecular target: Mitotic checkpoint serine/threonine-protein kinase BUB1 (Homo sapiens) (UniProt O43683); test: Inhibition of wild-type human partial length BUB1 (Q724 to K1085 residues) expressed in mammalian expression system assessed as residual activity at 1 uM by Kinomescan method relative to control
[5] = molecular target: Cyclin-dependent kinase 7 (Homo sapiens) (UniProt P50613); test: Inhibition of wild-type human full length CDK7 (M1 to L344 residues) expressed in mammalian expression system assessed as residual activity at 1 uM by Kinomescan method relative to control
[6] = molecular target: Citron Rho-interacting kinase (Homo sapiens) (UniProt O14578); test: Inhibition of wild-type human partial length CIT (M68 to E432 residues) expressed in bacterial expression system assessed as residual activity at 1 uM by Kinomescan method relative to control
[7] = molecular target: Casein kinase I isoform gamma-3 (Homo sapiens) (UniProt Q9Y6M4); test: Inhibition of wild-type human full length CSNK1G3 (M1 to K447 residues) expressed in bacterial expression system assessed as residual activity at 1 uM by Kinomescan method relative to control
[8] = system: Epidermal growth factor receptor (Homo sapiens), P00533 [UNDEFINED MUTATION]; test: Inhibition of human partial length EGFR E746-A750del mutant expressed in bacterial expression system assessed as residual activity at 1 uM by Kinomescan method relative to control
[9] = molecular target: Ephrin type-A receptor 2 (Homo sapiens) (UniProt P29317); test: Inhibition of wild-type human partial length EPHA2 (T593 to V891 residues) expressed in bacterial expression system assessed as residual activity at 1 uM by Kinomescan method relative to control
[10] = molecular target: Mitogen-activated protein kinase 6 (Homo sapiens) (UniProt Q16659); test: Inhibition of wild-type human partial length ERK3 (M1 to P413 residues) expressed in bacterial expression system assessed as residual activity at 1 uM by Kinomescan method relative to control
[11] = system: Receptor-type tyrosine-protein kinase FLT3 (Homo sapiens), P36888 [N841I]; test: Inhibition of human partial length FLT3 N841I mutant (V592 to Y969 residues) expressed in bacterial expression system assessed as residual activity at 1 uM by Kinomescan method relative to control
[12] = molecular target: Mitogen-activated protein kinase 9 (Homo sapiens) (UniProt P45984); test: Inhibition of wild-type human full length JNK2 (M1 to Q382 residues) expressed in mammalian expression system assessed as residual activity at 1 uM by Kinomescan method relative to control
[13] = molecular target: Leucine-rich repeat serine/threonine-protein kinase 2 (Homo sapiens) (UniProt Q5S007); test: Inhibition of wild-type human partial length LRRK2 (H970 to E2527 residues) expressed in mammalian expression system assessed as residual activity at 1 uM by Kinomescan method relative to control
[14] = molecular target: MAP kinase-activated protein kinase 5 (Homo sapiens) (UniProt Q8IW41); test: Inhibition of wild-type human partial length MAPKAPK5 (M1 to D322 residues) expressed in mammalian expression system assessed as residual activity at 1 uM by Kinomescan method relative to control
[15] = molecular target: Serine/threonine-protein kinase MARK1 (Homo sapiens) (UniProt Q9P0L2); test: Inhibition of wild-type human partial length MARK1 (Q30 to T341 residues) expressed in bacterial expression system assessed as residual activity at 1 uM by Kinomescan method relative to control
[16] = molecular target: MAP/microtubule affinity-regulating kinase 3 (Homo sapiens) (UniProt P27448); test: Inhibition of wild-type human full length MARK3 (M1 to L729 residues) expressed in bacterial expression system assessed as residual activity at 1 uM by Kinomescan method relative to control
[17] = molecular target: Mitogen-activated protein kinase kinase kinase 9 (Homo sapiens) (UniProt P80192); test: Inhibition of wild-type human partial length MLK1 (V88 to W426 residues) expressed in bacterial expression system assessed as residual activity at 1 uM by Kinomescan method relative to control
[18] = molecular target: Serine/threonine-protein kinase OSR1 (Homo sapiens) (UniProt O95747); test: Inhibition of wild-type human full length OSR1 (M1 to S527 residues) expressed in mammalian expression system assessed as residual activity at 1 uM by Kinomescan method relative to control
[19] = molecular target: 3-phosphoinositide-dependent protein kinase 1 (Homo sapiens) (UniProt O15530); test: Inhibition of wild-type human full length PDPK1 (M1 to Q556 residues) expressed in bacterial expression system assessed as residual activity at 1 uM by Kinomescan method relative to control
[20] = molecular target: Serine/threonine-protein kinase N1 (Homo sapiens) (UniProt Q16512); test: Inhibition of wild-type human partial length PKN1 (E598 to C948 residues) expressed in bacterial expression system assessed as residual activity at 1 uM by Kinomescan method relative to control
[21] = molecular target: Tyrosine-protein kinase Srms (Homo sapiens) (UniProt Q9H3Y6); test: Inhibition of wild-type human partial length SRMS (L208 to P488 residues) expressed in mammalian expression system assessed as residual activity at 1 uM by Kinomescan method relative to control
[22] = molecular target: Serine/threonine-protein kinase tousled-like 1 (Homo sapiens) (UniProt Q9UKI8); test: Inhibition of wild-type human partial length TLK1 (K447 to A754 residues) expressed in bacterial expression system assessed as residual activity at 1 uM by Kinomescan method relative to control
[23] = molecular target: TRAF2 and NCK-interacting protein kinase (Homo sapiens) (UniProt Q9UKE5); test: Inhibition of wild-type human partial length TNIK (D4 to K311 residues) expressed in bacterial expression system assessed as residual activity at 1 uM by Kinomescan method relative to control
[24] = molecular target: High affinity nerve growth factor receptor (Homo sapiens) (UniProt P04629); test: Inhibition of wild-type human partial length TRKA (G475 to G790 residues) expressed in mammalian expression system assessed as residual activity at 1 uM by Kinomescan method relative to control
[25] = molecular target: Wee1-like protein kinase (Homo sapiens) (UniProt P30291); test: Inhibition of wild-type human partial length WEE1 (M291 to K575 residues) expressed in bacterial expression system assessed as residual activity at 1 uM by Kinomescan method relative to control

Chain of Epidermal growth factor receptor (Homo sapiens), P00533 [UNDEFINED MUTATION] (P00533 whole entry, looked up, stated change not applied, the tested form may be a part): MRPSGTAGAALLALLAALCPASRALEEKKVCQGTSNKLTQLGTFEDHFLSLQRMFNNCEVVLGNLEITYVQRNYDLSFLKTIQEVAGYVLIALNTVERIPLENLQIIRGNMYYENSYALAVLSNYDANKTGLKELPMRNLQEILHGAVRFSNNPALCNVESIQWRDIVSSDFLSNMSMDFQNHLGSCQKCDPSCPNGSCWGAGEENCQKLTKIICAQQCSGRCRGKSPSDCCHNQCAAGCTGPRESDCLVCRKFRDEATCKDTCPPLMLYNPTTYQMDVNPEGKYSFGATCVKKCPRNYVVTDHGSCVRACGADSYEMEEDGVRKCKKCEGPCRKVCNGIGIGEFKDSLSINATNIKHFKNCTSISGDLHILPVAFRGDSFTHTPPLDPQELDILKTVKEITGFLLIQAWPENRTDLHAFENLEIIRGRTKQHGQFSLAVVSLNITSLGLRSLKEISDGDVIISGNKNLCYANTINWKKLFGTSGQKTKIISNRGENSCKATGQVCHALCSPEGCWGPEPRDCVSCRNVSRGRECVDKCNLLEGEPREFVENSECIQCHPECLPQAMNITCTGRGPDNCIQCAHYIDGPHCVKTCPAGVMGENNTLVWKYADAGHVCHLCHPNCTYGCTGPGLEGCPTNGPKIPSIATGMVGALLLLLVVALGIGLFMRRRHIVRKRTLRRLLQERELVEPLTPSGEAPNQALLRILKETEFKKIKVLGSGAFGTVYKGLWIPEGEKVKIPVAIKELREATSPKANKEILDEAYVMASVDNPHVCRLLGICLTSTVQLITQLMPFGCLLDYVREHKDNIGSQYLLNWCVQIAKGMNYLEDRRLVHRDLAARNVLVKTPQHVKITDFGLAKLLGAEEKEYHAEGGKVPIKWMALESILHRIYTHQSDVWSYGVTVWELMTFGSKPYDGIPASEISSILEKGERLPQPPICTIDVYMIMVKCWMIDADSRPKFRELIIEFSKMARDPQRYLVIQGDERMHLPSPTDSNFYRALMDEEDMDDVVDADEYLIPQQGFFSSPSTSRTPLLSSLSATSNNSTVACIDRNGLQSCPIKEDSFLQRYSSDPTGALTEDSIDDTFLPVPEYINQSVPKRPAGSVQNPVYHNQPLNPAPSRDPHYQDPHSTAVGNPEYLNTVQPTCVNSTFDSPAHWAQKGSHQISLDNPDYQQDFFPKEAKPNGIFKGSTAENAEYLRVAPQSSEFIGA
Chain of Mitotic checkpoint serine/threonine-protein kinase BUB1 (Homo sapiens) (O43683 whole entry, looked up, the tested form may be a part): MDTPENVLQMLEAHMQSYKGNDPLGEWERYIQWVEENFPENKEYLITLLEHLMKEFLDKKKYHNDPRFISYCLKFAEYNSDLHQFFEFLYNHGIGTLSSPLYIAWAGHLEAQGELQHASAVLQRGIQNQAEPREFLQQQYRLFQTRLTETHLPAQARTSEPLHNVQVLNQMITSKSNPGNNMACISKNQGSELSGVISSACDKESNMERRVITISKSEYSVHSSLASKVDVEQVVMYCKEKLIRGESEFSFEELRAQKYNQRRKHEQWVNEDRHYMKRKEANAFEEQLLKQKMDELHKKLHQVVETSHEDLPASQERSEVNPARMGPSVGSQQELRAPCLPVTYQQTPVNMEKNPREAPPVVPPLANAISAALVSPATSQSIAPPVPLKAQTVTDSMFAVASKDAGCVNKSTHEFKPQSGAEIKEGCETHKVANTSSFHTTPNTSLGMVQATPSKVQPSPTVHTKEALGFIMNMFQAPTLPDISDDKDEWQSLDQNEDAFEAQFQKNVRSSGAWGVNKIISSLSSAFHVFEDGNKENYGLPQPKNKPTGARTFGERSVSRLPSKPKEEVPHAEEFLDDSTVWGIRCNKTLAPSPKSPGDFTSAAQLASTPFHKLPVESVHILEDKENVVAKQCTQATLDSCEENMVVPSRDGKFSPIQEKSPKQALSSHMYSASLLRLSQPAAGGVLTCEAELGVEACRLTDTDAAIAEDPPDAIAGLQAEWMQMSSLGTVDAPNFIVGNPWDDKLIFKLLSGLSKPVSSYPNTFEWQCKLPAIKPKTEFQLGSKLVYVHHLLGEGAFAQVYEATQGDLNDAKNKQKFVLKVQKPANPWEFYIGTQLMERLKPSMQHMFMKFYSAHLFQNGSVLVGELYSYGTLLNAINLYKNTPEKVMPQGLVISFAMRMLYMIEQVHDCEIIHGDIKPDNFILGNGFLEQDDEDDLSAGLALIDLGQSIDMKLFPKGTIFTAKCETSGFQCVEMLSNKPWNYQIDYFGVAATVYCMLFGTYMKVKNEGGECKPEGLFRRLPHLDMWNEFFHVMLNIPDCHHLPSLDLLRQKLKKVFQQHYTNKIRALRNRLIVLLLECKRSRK
Chain of Mitogen-activated protein kinase 9 (Homo sapiens) (P45984 whole entry, looked up, the tested form may be a part): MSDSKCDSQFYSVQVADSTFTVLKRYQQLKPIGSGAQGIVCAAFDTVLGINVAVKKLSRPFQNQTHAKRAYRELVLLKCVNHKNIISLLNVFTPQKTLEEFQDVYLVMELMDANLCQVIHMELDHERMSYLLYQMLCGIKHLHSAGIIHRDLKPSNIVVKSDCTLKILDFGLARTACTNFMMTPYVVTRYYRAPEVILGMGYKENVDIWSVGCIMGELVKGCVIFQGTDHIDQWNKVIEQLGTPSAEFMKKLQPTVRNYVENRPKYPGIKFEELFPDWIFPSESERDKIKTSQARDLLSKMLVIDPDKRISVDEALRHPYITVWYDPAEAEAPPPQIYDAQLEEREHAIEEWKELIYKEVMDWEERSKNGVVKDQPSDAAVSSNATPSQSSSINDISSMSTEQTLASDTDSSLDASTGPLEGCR
Chain of MAP/microtubule affinity-regulating kinase 3 (Homo sapiens) (P27448 whole entry, looked up, the tested form may be a part): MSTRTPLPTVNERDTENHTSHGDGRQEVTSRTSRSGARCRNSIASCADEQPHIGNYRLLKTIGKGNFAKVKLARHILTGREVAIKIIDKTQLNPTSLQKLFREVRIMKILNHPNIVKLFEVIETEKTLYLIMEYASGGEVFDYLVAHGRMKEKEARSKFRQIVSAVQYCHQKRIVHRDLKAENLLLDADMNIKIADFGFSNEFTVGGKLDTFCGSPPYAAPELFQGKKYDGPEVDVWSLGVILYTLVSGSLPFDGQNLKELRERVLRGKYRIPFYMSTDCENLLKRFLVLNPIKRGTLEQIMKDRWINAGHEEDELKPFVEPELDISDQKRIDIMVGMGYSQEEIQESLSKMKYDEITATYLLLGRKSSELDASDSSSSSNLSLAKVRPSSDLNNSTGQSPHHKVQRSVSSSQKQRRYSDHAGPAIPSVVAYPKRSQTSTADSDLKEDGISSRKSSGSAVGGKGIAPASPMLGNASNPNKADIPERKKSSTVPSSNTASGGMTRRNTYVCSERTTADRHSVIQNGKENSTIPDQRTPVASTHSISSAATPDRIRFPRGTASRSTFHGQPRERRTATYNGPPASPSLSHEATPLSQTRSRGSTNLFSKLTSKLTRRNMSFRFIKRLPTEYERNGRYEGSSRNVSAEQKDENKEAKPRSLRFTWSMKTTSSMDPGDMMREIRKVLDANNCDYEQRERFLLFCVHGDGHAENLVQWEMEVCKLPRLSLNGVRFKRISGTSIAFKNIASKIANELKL
Chain of Tyrosine-protein kinase BTK (Q06187 whole entry): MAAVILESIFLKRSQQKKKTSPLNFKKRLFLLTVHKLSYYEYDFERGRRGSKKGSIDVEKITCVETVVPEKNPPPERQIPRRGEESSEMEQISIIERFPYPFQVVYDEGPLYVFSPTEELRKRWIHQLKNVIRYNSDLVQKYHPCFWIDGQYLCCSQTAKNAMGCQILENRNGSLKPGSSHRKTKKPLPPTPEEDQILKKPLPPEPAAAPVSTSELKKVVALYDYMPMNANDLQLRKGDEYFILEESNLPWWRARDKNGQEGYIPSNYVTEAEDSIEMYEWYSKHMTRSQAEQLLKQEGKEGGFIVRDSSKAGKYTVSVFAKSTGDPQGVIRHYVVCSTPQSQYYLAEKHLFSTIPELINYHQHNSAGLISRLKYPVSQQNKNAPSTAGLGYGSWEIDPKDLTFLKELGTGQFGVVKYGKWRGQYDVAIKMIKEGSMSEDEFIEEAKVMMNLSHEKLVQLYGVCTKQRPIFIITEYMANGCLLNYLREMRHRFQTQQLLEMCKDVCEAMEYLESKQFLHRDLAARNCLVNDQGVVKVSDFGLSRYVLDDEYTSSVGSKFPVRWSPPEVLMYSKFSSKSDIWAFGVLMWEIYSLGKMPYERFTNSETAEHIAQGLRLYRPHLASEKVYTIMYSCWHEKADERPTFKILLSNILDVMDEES
Chain of 3-phosphoinositide-dependent protein kinase 1 (Homo sapiens) (O15530 whole entry, the tested form may be a part): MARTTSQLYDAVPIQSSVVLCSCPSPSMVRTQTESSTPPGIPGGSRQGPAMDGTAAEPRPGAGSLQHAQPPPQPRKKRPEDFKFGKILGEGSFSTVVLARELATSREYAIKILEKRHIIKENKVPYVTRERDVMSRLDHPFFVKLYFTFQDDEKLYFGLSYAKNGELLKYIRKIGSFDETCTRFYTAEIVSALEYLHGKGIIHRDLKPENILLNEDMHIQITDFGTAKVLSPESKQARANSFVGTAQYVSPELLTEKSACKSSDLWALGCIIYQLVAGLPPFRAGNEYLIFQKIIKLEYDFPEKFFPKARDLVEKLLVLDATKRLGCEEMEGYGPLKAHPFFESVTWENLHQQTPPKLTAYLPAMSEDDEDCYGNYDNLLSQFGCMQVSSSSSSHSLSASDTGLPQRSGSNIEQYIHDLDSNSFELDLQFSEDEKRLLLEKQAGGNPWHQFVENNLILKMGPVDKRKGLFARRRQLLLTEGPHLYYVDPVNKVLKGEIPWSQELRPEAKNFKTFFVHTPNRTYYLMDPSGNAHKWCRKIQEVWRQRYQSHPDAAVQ
Chain of Cyclin-dependent kinase 7 (Homo sapiens) (P50613 whole entry, the tested form may be a part): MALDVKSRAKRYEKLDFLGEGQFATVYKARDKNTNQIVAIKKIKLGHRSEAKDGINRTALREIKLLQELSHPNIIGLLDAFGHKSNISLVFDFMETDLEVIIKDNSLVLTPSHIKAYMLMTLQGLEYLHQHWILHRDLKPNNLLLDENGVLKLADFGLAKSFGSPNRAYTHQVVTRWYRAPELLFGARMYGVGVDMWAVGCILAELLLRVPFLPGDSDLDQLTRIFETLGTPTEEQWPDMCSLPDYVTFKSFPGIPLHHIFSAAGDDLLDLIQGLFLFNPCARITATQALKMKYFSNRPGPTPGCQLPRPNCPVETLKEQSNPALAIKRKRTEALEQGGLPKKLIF

## C=CC(=O)Nc1cc(Nc2cc(-c3cccc(NC(=O)c4ccc(C(C)(C)C)cc4)c3C)cn(C)c2=O)ccc1C(=O)N1CCOCC1
U-937
  GI50: 4.8 µM
[1]
  EC50: < 0.03 µM
[2]
  half-life: 1.33 h
[3]
  Activity: 97%
[4]
  Activity: 100%
[5]
  Activity: 89%
[6]
  Activity: 97%
[7]
  Activity: 90%
[8]
  Activity: 80%
[9]
  Activity: 87%
[10]
  Activity: 100%
[11]
  Activity: 100%
[12]
  Activity: 98%
[13]
  Activity: 100%
[14]
  Activity: 100%
[15]
  Activity: 88%
[16]
  Activity: 100%
[17]
  Activity: 99%
[18]
  Activity: 100%
[19]
  Activity: 90%
[20]
  Activity: 100%
[21]
  Activity: 100%
[22]
  Activity: 99%
[23]
  Activity: 97%
[24]
  Activity: 91%
[25]
  Activity: 99%
